Patent US20100004330A1, “ANTI-OXIDATIVE CONTENT MATERIAL USED IN DRINK AND FOOD MANUFACTURING METHOD” (priority 2008, published 2010)

Tests used:
[1] = antioxidant activity testing (DPPH scavenging activity); assay type: biochemical; details: corresponds to ppm VitE
Description: According to the present invention, the products of the Beta-carotene, lutein, lycopene, and of mixture of these three (in 0.5:4:4 optimal weight ratio) from the Allied Biochemical Industrial Co., Ltd were sent to “Food Industrial Research And Development Institute” (331 Shih-Pin Road, Hsinchu, 300 Taiwan) for antioxidant activity testing (DPPH scavenging activity).

[2] = system: thiobarbituric acid-reactive substances (TBARS), lipid peroxidation; details: single carotenoid; Control (no antioxidants) 100 ± 9; cited from earlier work
[3] = system: tissue factor; details: added into micro-emulsion; 0.5, 2 and 10 μmol/L; P<0.01; cited from earlier work
[4] = system: macular degeneration; details: person ingesting 6 mg per day; cited from earlier work
[5] = system: myocardial infarction; details: contrast of the 10th and 90th percentiles of carotenoid level in adipose tissue; cited from earlier work
[6] = system: cardiovascular disease; details: middle-aged or elderly; cited from earlier work

SMILES	Scavenging rate/g [1]	TBARS (%) measured [2]	tissue factor activity [3]	lower risk for macular degeneration [4]	odds ratio, myocardial infarction [5]	reduction of the risk of cardiovascular disease [6]
CC1=C[C@H](O)CC(C)(C)[C@H]1/C=C/C(C)=C/C=C/C(C)=C/C=C/C=C(C)/C=C/C=C(C)/C=C/C1=C(C)C[C@@H](O)CC1(C)C [Lutein]	correspond to 7.69 × 10^2 ppm VitE	77 ± 9%	suppress tissue factor activity	43%	–	–
CC(C)=CCC/C(C)=C/C=C/C(C)=C/C=C/C(C)=C/C=C/C=C(C)/C=C/C=C(C)/C=C/C=C(\C)CCC=C(C)C [Lycopene]	correspond to 2.35 × 10^4 ppm VitE	25 ± 10%	suppress tissue factor activity	–	0.52	–
CC1=C(/C=C/C(C)=C/C=C/C(C)=C/C=C/C=C(C)/C=C/C=C(C)/C=C/C2=C(C)CCCC2(C)C)C(C)(C)CCC1 [β-carotene]	correspond to 7.08 × 10^3 ppm VitE	73 ± 9%	suppress tissue factor activity	–	–	45%
